Patent US9896441B2 (Lycera Corporation, priority 2014, dated 2018)

How the values were obtained:
Gal4-RORγ-LBD = target: T1, Gal4-RORγ-LBD (Homo sapiens, UniProt P51449); assay: Gal4-RORγ Luciferase Reporter Assay in HEK-293T Cells; format: cell-based; conditions: HEK-293 cells; for Gal4-RORγ Assay Max Response: maximum response
T1 construct: expressed in transfected cells
T1 sequence (P51449 269-508 limits assumed): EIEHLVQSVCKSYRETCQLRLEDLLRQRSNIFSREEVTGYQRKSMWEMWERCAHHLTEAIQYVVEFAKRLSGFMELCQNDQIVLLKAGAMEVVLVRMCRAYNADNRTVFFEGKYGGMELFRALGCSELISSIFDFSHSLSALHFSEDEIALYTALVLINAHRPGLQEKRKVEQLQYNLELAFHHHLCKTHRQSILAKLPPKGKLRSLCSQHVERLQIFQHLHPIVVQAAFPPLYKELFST
How it was run: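 Max Response was taken as the upper plateau of a 4-parameter logistic fit of luciferase signal, normalized to 100 for wells without ursolic acid or compound. Transiently Gal4-RORγ-LBD/Gal4-luc transfected HEK-293 cells carrying […] ursolic acid were incubated with test compounds (0.2% DMSO) overnight at 37 °C and read with One-Glo.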

RORγ-LBD = target: T2, RORγ-LBD (Homo sapiens, UniProt P51449); assay: RORγ-Ligand Binding Domain (LBD) TR-FRET Assay; format: biochemical; conditions: for TR-FRET Assay Max Response: maximum response;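 for TR-FRET Assay Max Response: 665/615 nm signal ratio set to 100 without ursolic acid or test compound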
T2 construct: made in house; host or cells: SF9 cells (baculovirus); used as diluted lysate
T2 sequence (P51449 269-508 limits assumed): T1 sequence (P51449 269-508 limits assumed)
How it was run: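 Lysate from SF9 cells expressing His-RORγ-LBD is diluted to about 3 nM final in 50 mM Tris pH 7.0 assay buffer. A biotin-tagged SRC1 LXXLL peptide goes in at 200 nM final, plus ursolic acid at 2 μM final. Test compounds carry 1% DMSO final; signal read by TR-FRET.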

[1] = ursolic acid present, luciferase readout
[2] = with 2 μM ursolic acid (RORγ antagonist), highest test concentration 10 μM
[3] = luciferase reporter, with ursolic acid
[4] = luciferase reporter, in presence of ursolic acid

| EC50 (Gal4-RORγ-LBD; [3]) | EC50 (RORγ-LBD; RORγ-LBD TR-FRET) | SMILES | further results |
| --- | --- | --- | --- |
| 500 to 5000 nM | < 500 nM | CC1CCC(=Cc2ccc3c(c2)N(S(=O)(=O)c2cccc(C(F)(F)F)c2)C[C@H](CCC(=O)O)O3)CC1 (stereo partly drawn) [Example 95K, 3-((2S)-6-((4-methylcyclo-hexylidene)methyl)-4-((3-(trifluoromethyl)phenyl)sulfonyl)-3,4-dihydro-2H-benzo[b][1,4]oxazin-2-yl)propanoic acid] | – |
| 500 to 5000 nM | < 500 nM | C[C@@H]1C/C(=C\c2ccc3c(c2)N(S(=O)(=O)c2cc(C(F)(F)F)cnc2OCCO)C[C@H](CCC(=O)O)O3)C[C@H](C)C1 [Example 95AA, 3-((S)-6-((E)-((3R,5S)-3,5-dimethylcyclohexylidene)-methyl)-4-((2-(2-hydroxy-ethoxy)-5-(trifluoromethyl)-pyridin-3-yl)sulfonyl)-3,4-dihydro-2H-benzo[b][1,4]oxazin-2-yl)propanoic acid] | – |

Further lines, the molecule ahead of its results:

| SMILES | EC50 (Gal4-RORγ-LBD; [3]) | EC50 (RORγ-LBD; RORγ-LBD TR-FRET) | further results |
| --- | --- | --- | --- |
| CC/C(=C\c1ccc2c(c1)N(S(=O)(=O)c1cc(C(F)(F)F)cnc1OCCO)C[C@H](CCC(=O)OC)O2)C(C)C [Example 191F, methyl (S,E)-3-(6-(2-ethyl-3-methylbut-1-en-1-yl)-4-((2-(2-hydroxyethoxy)-5-(trifluoro-methyl)pyridin-3-yl)sulfonyl)-3,4-dihydro-2H-benzo[b][1,4]oxazin-2-yl)propanoate] | – | – | EC50 (Gal4-RORγ-LBD; [1]): 500 to 5000 nM; EC50 (RORγ-LBD; [2]): < 500 nM |
| CCOc1nn(CC)cc1S(=O)(=O)N1C[C@H](CCC(=O)O)Oc2ccc(/C=C/c3ncccc3Cl)cc21 [Example 89EE, (S,E)-3-(6-(2-(3-chloropyridin-2-yl)vinyl)-4-((3-ethoxy-1-ethyl-1H-pyrazol-4-yl)sulfonyl)-3,4-dihydro-2H-benzo[b][1,4]oxazin-2-yl)propanoic acid] | 500 to 5000 nM | < 500 nM | – |
| C/C(=C\c1ccc2c(c1)N(S(=O)(=O)c1ccc(F)c(C(F)(F)F)c1)C[C@H](CCC(=O)O)O2)c1c(F)cccc1Cl [Example 86A, (S,E)-3-(6-(2-(2-chloro-6-fluorophenyl)prop-1-en-1-yl)-4-((4-fluoro-3-(trifluoromethyl)-phenyl)sulfonyl)-3,4-dihydro-2H-benzo[b][1,4]oxazin-2-yl)-propanoic acid] | 500 to 5000 nM | < 500 nM | – |
| N#CCC[C@H]1CN(S(=O)(=O)c2cccc(C(F)(F)F)c2)c2cc(CCc3c(F)cccc3Cl)ccc2O1 | – | – | EC50 (Gal4-RORγ-LBD; [1]): < 500 nM; EC50 (RORγ-LBD; [2]): < 500 nM |
| COC(=O)CO[C@@H]1Cc2ccc(OCc3c(F)cccc3Cl)cc2N(S(=O)(=O)c2cccc(C(F)(F)F)c2)C1 [Example 173A] | – | – | EC50 (Gal4-RORγ-LBD; [4]): < 500 nM; EC50 (RORγ-LBD; RORγ-LBD TR-FRET assay): < 500 nM |
| COC(=O)CCC1CC(S(=O)(=O)c2cccc(C(F)(F)F)c2)c2cc(/C=C(\C)c3c(F)cccc3Cl)ccc2O1 (stereo not shown) [Example 186H, methyl (E)-3-(6-(2-(2-chloro-6-fluorophenyl)prop-1-en-1-yl)-4-((3-(trifluoromethyl)phenyl)-sulfonyl)chroman-2-yl)propanoate] | – | – | EC50 (Gal4-RORγ-LBD; [4]): < 500 nM; Gal4-RORγ Assay Max Response (Gal4-RORγ-LBD; [4]): ** (a value in the range of greater than 90 to 150); EC50 (RORγ-LBD; RORγ-LBD TR-FRET assay): < 500 nM; TR-FRET Assay Max Response (RORγ-LBD; RORγ-LBD TR-FRET assay): *** (a value in the range of greater than 150 to 200) |
| Cn1nccc1/C=C/c1ccc2c(c1)N(S(=O)(=O)c1cccc(C(F)(F)F)c1)C[C@H](CCC(=O)O)O2 [Example 89CI, (S,E)-3-(6-(2-(1-methyl-1H-pyrazol-5-yl)vinyl)-4-((3-(trifluoromethyl)phenyl)sulfonyl)-3,4-dihydro-2H-benzo[b][1,4]-oxazin-2-yl)propanoic acid] | > 10000 nM | > 10000 nM | – |
| Cc1ccc(/C=C/c2ccc3c(c2)N(S(=O)(=O)c2cccc(OC(F)F)c2)C[C@H](CCC(=O)O)O3)cc1 [Example 89BE, (S,E)-3-(4-((3-(difluoromethoxy)phenyl)sulfonyl)-6-(4-methylstyryl)-3,4-dihydro-2H-benzo[b][1,4]oxazin-2-yl)propanoic acid] | > 10000 nM | 500 to 5000 nM | – |
| COC(=O)CC[C@H]1CN(S(=O)(=O)c2ccc(F)c(Cl)c2)c2cc(/C=C(\C)c3c(F)cccc3Cl)ccc2O1 [Example 86F, (S,E)-methyl 3-(4-((3-chloro-4-fluorophenyl)sulfonyl)-6-(2-(2-chloro-6-fluorophenyl)prop-1-en-1-yl)-3,4-dihydro-2H-benzo-[b][1,4]oxazin-2-yl)propanoate] | < 500 nM | < 500 nM | – |
| CCOc1nn(CC)cc1S(=O)(=O)N1C[C@H](CCC(=O)OC)Oc2ccc(/C=C/c3ccccc3Cl)cc21 [Example 89BD, (S,E)-methyl 3-(6-(2-chlorostyryl)-4-((3-ethoxy-1-ethyl-1H-pyrazol-4-yl)sulfonyl)-3,4-dihydro-2H-benzo[b][1,4]-oxazin-2-yl)propanoate] | > 10000 nM | < 500 nM | – |
| COC(=O)CC[C@H]1CN(S(=O)(=O)c2cccc(C(F)(F)F)c2)c2cc(/C=C/c3c(Cl)cccc3OC)ccc2O1 [Example 89EZ, methyl (S,E)-3-(6-(2-chloro-6-methoxystyryl)-4-((3-(trifluoromethyl)phenyl)-sulfonyl)-3,4-dihydro-2H-benzo[b][1,4]oxazin-2-yl)propanoate] | < 500 nM | < 500 nM | – |
| COC(=O)c1ccc(C(=O)NC[C@H]2CN(S(=O)(=O)c3ccc(F)c(OC)c3)c3cc(/C=C(\C)c4c(F)cccc4Cl)ccc3O2)cc1 [Example 133, Methyl (S,E)-4-(((6-(2-(2-chloro-6-fluorophenyl)prop-1-en-1-yl)-4-((4-fluoro-3-methoxyphenyl)sulfonyl)-3,4-dihydro-2H-benzo[b][1,4]oxazin-2-yl)methyl)carbamoyl)benzoate] | – | – | EC50 (Gal4-RORγ-LBD; [4]): < 500 nM; Gal4-RORγ Assay Max Response (Gal4-RORγ-LBD; [4]): * (a value in the range of 30 to 90); EC50 (RORγ-LBD; RORγ-LBD TR-FRET assay): < 500 nM; TR-FRET Assay Max Response (RORγ-LBD; RORγ-LBD TR-FRET assay): **** (a value greater than 200) |
| CCOc1ncc(C(F)(F)F)cc1S(=O)(=O)N1C[C@H](CCC(=O)OC)Oc2ccc(/C=C/c3c(Cl)cccc3OC)cc21 [Example 89FB, methyl (S,E)-3-(6-(2-chloro-6-methoxystyryl)-4-((2-ethoxy-5-(trifluoromethyl)pyridin-3-yl)sulfonyl)-3,4-dihydro-2H-benzo[b][1,4]oxazin-2-yl)propanoate] | 500 to 5000 nM | < 500 nM | – |
| COc1cc(S(=O)(=O)N2C[C@H](CNC(=O)c3cccc(C(=O)O)c3)Oc3ccc(/C=C(\C)c4c(F)cccc4Cl)cc32)ccc1F [Example 135A, (S,E)-3-(((6-(2-(2-chloro-6-fluorophenyl)prop-1-en-1-yl)-4-((4-fluoro-3-methoxyphenyl)sulfonyl)-3,4-dihydro-2H-benzo[b][1,4]oxazin-2-yl)methyl)carbamoyl)benzoic acid] | – | – | EC50 (Gal4-RORγ-LBD; [4]): 500 to 5000 nM; Gal4-RORγ Assay Max Response (Gal4-RORγ-LBD; [4]): * (a value in the range of 30 to 90); EC50 (RORγ-LBD; RORγ-LBD TR-FRET assay): < 500 nM; TR-FRET Assay Max Response (RORγ-LBD; RORγ-LBD TR-FRET assay): *** (a value in the range of greater than 150 to 200) |
| COC(=O)CC[C@H]1CN(S(=O)(=O)c2ccc(F)c(OC(F)F)c2)c2cc(/C=C/c3c(F)cccc3Cl)ccc2O1 [Example 89CU, methyl (S,E)-3-(6-(2-chloro-6-fluorostyryl)-4-((3-(difluoromethoxy)-4-fluorophenyl)-sulfonyl)-3,4-dihydro-2H-benzo[b][1,4]oxazin-2-yl)propanoate] | 500 to 5000 nM | < 500 nM | – |
| CC(C)(O[C@@H]1Cc2ccc(OCc3c(F)cccc3Cl)cc2N(S(=O)(=O)c2cccc(C(F)(F)F)c2)C1)C(=O)O [Example 172, (R)-2-((7-((2-Chloro-6-fluorobenzyl)oxy)-1-((3-(trifluoromethyl)phenyl)sulfonyl)-1,2,3,4-tetrahydroquinolin-3-yl)oxy)-2-methylpropanoic acid] | – | – | EC50 (Gal4-RORγ-LBD; [4]): 500 to 5000 nM; Gal4-RORγ Assay Max Response (Gal4-RORγ-LBD; [4]): ** (a value in the range of greater than 90 to 150); EC50 (RORγ-LBD; RORγ-LBD TR-FRET assay): < 500 nM; TR-FRET Assay Max Response (RORγ-LBD; RORγ-LBD TR-FRET assay): ** (a value in the range of greater than 90 to 150) |
| O=C(O)C1CCN(C(=O)CC[C@H]2CN(S(=O)(=O)c3cccc(C(F)(F)F)c3)c3cc(/C=C/c4c(Cl)cccc4C(F)(F)F)ccc3O2)CC1 [Example 129A, (S,E)-1-(3-(6-(2-chloro-6-(trifluoromethyl)styryl)-4-((3-(trifluoromethyl)-phenyl)sulfonyl)-3,4-dihydro-2H-benzo[b]-[1,4]oxazin-2-yl)propanoyl)piperidine-4-carboxylic acid] | – | – | EC50 (Gal4-RORγ-LBD; [4]): < 500 nM; Gal4-RORγ Assay Max Response (Gal4-RORγ-LBD; [4]): ** (a value in the range of greater than 90 to 150); EC50 (RORγ-LBD; RORγ-LBD TR-FRET assay): < 500 nM; TR-FRET Assay Max Response (RORγ-LBD; RORγ-LBD TR-FRET assay): **** (a value greater than 200) |
| COC(=O)CC[C@H]1CN(S(=O)(=O)c2cccc(C(F)(F)F)c2)c2cc(/C=C(\C)c3c(C)noc3C)ccc2O1 [Example 86AD, (S,E)-methyl 3-(6-(2-(3,5-dimethylisoxazol-4-yl)prop-1-en-1-yl)-4-((3-(trifluoromethyl)-phenyl)sulfonyl)-3,4-dihydro-2H-benzo[b][1,4]oxazin-2-yl)-propanoate] | 500 to 5000 nM | < 500 nM | – |
| COC(=O)CC[C@H]1CN(S(=O)(=O)c2cc(Cl)cnc2OCCO)c2cc(/C=C/c3c(F)cccc3Cl)ccc2O1 [Example 89AK, methyl (S,E)-3-(4-((5-chloro-2-(2-hydroxyethoxy)pyridin-3-yl)sulfonyl)-6-(2-chloro-6-fluorostyryl)-3,4-dihydro-2H-benzo[b][1,4]oxazin-2-yl)propanoate] | 500 to 5000 nM | < 500 nM | – |
